Values quoted from earlier work as cited in patent US9278994B2, “Short antimicrobial lipopeptides” (Helix BioMedix Inc., priority 2012, dated 2016).

Experiments:
[1] = tested on: C. albicans strain SC5314; details: Rauch et al. 2009; cited from earlier work
[2] = tested on: S. aureus and C. albicans; details: Cutuli et al. 2000, no MIC determined; cited from earlier work

## lysine-proline-valine [KPV]
[1]
  concentration up to which yeast growth was not inhibited: > 100 µM
[2]
  antimicrobial activity in phosphate buffer: antimicrobial activity
